Results from US5332733A, “Heterocyclically substituted piperazinoakylbenzoxazine and piperazinoalkylbenzothiazine compounds, processes for preparing them, and medicaments containing them” (Kali-Chemie Pharma GmbH, priority 1990, dated 1994).

System: PAF-induced aggregation of rabbit blood platelets
Assay: Anti-PAF activity in vitro, PAF-induced platelet aggregation
Assay type: cell-based, rabbit (New Zealand hybrids)
Settings: Oryctolagus cuniculus, test substance 10^-5 mole/l, pH 7.4
Text: 4. Determination of Anti-PAF Activity In Vitro
PAF (=Platelet Activating Factor) is a phospholipid mediator which has many effects. Activation of platelet aggregation induces protracted broncho-contraction and hyper-reactivity of the air paths.
In this test the effect of the test substances on platelet aggregation induced by adding PAF to a suspension of platelets obtained from rabbit blood is investigated using the method described by Mikashima et al. (Jap. J. Pharmacol. 44 (1987) 387-391).
A suspension of platelets obtained from rabbit blood containing 4×10^9 platelets/ml in a modified Tyrode buffer solution (=Tyrode solution with 1.3 mM/l CaCl2 and 2.5 g/l gelatine added) adjusted to pH 7.4 was used. Tyrode solution is an aqueous solution containing 136.9 mmoles NaCl, 2.68 mmoles KCl, 2.31 mmoles CaCl2, 1.0 mmole MgCl2, 11.9 mmoles NaHCO3, 1.45 mmoles NaH2 PO4 and 5.55 mmoles glucose per liter. The platelets were obtained from 10 ml blood samples from each of three rabbits (New Zealand hybrids, body weight 3-4 kg). For this the blood samples were treated with ethylenediamine tetraacetic acid and washed according to the method of Artley et al. (Brit. J. Hematol. 19 (1970), 7-17). A platelet-rich plasma was then initially separated by centrifuging (20 minutes at 400×g). The blood platelets were separated from the plasma by recentrifuging for 15 minutes at 1,400×g. The platelets remaining as sediment after centrifuging were resuspended in a Tyrode buffer solution (but without calcium). 0.4 mmole of lysine acetylsalicylate was then added, and after 15 minutes the platelets were sedimented again. The sediment was resuspended in the aforementioned modified Tyrode buffer solution, and the number of platelets in the resulting suspension was adjusted to the desired content.
A 40×10^-9 molar PAF solution was used as a reagent. This solution was made from a 1.8×10^-3 molar stock solution in chloroform. For this purpose a 10 μl sample of the stock solution was evaporated to dryness and redissolved in 180 μl of the modified Tyrode solution to which 0.25% of lipid-free bovine serum albumin had been added. From this 10^-5 molar working solutions were then prepared and stored frozen. Samples of these solutions were appropriately diluted for the tests.
To carry out the test 50 μl of the platelet suspension and 10 μl of a 40×10^-5 molar solution of the compound being investigated were added with stirring (1,000 rpm) to 330 μl of the modified Tyrode buffer solution in an aggregation tube provided with a small magnetic stirrer. This corresponds to a final test substance concentration of 10^-5 mole/l. After 90 seconds preincubation time, 10 μl of the PAF preparation were added. The aggregation occurring in the aggregation tubes was measured over 4-5 minutes with the aid of a computerized aggregometer.
The aggregation which occurred in test tubes containing only platelet suspension was evaluated as 0%, whereas the aggregation which occurred in test tubes containing platelet suspension and PAF preparation was evaluated as 100%. The aggregation which still occurred during the inhibition of the PAF induced platelet aggregation due to the addition of the test substances was measured, and the resulting aggregation inhibition was calculated therefrom in %.

| Structure (SMILES) | inhibition at 10 µM [%] |
| --- | --- |
| Cc1ccnc(N2CCN(CCCC3Sc4ccccc4NC3=S)CC2)c1 (stereo not drawn) [Example 11] | 96 |
| Cc1ccnc(N2CCN(CCCC3Sc4ccccc4NC3=O)CC2)c1 (stereo not drawn) [Example 8] | 48 |
| Cc1ccnc(N2CCN(CCCC3Oc4ccccc4NC3=O)CC2)c1 (stereo not drawn) [Example 9] | 51 |
